melting point [°C] | Structure (SMILES)
196 to 198 | CCCc1nc2c(N)nc3ccccc3c2n1CC(C)(C)CC(C)=NOC [Example 40, 5-(4-Amino-2-propyl-1H-imidazo[4,5-c]quinolin-1-yl)-4,4-dimethylpentan-2-one O-methyloxime]
148 to 150 | CON=C(C)CC(C)(C)Cn1cnc2c(N)nc3ccccc3c21 [Example 41, 5-(4-Amino-1H-imidazo[4,5-c]quinolin-1-yl)-4,4-dimethylpentan-2-one O-methyloxime]
153 to 155 | CCCCc1nc2c(N)nc3ccccc3c2n1CCC/C=N/OC [Example 42, (1E,Z)-4-(4-amino-2-butyl-1H-imidazo[4,5-c]quinolin-1-yl)butanal O-methyloxime]
191 to 193 | CCCc1nc2c(N)nc3ccccc3c2n1CCCCN(O)C(C)=O [Example 43, N-[4-(4-Amino-2-propyl-1H-imidazo[4,5-c]quinolin-1-yl)butyl]-N-hydroxyacetamide]
158 to 160 | CCCc1nc2c(N)nc3ccccc3c2n1CCCCN(O)C(=O)NC(C)C [Example 44, N-[4-(4-Amino-2-propyl-1H-imidazo[4,5-c]quinolin-1-yl)butyl]-N-hydroxy-N′-isopropylurea]
153 to 155 | CO/N=C/CCCn1c(C)nc2c(N)nc3ccccc3c21 [Example 45, 4-(4-Amino-2-methyl-1H-imidazo[4,5-c]quinolin-1-yl)butanal O-methyloxime]
158 to 160 | CON(CCCCn1c(C)nc2c(N)nc3ccccc3c21)C(N)=O [Example 46, N-[4-(4-Amino-2-methyl-1H-imidazo[4,5-c]quinolin-1-yl)butyl]-N-methoxyurea]
201 to 203 | CON(CCCCn1c(C)nc2c(N)nc3ccccc3c21)S(C)(=O)=O [Example 47, N-[4-(4-Amino-2-methyl-1H-imidazo[4,5-c]quinolin-1-yl)butyl]-N-methoxymethanesulfonamide]
175 to 178 | CCOCc1nc2c(N)nc3ccccc3c2n1C/C(CC)=N/OC [Example 48, 1-[4-Amino-2-(ethoxymethyl)-1H-imidazo[4,5-c]quinolin-1-yl]butan-2-one O-methyloxime]
178 to 180 | CCCc1nc2c(N)nc3c(c2n1CCCCN(O)C(=O)NC(C)C)CCCC3 [Example 50, N-[4-(4-Amino-2-propyl-6,7,8,9-tetrahydro-1H-imidazo[4,5-c]quinolin-1-yl)butyl]-N-hydroxy-N′-isopropylurea]
210 to 213 | CCc1nc2c(N)nc3ccccc3c2n1CCCNOC [Example 51, N-[3-(4-Amino-2-ethyl-1H-imidazo[4,5-c]quinolin-1-yl)propyl]-O-methylhydroxylamine]

— patent US8778963B2, “Hydroxylamine and oxime substituted imidazoquinolines, imidazopyridines, and imidazonaphthyridines” (3M Innovative Properties Company, priority 2003, dated 2014)
